Kd data for three compounds are collected here from article PMC10987503, “Biomimetic NIR-II fluorescent proteins created from chemogenic protein-seeking dyes for multicolor deep-tissue bioimaging” (Nature Communications, 2024).

A word on the pKd: it is the Kd on a negative log10 scale, so that one unit is a factor of ten. Low readings indicate a high Kd, high ones a low Kd.

For assay [1], the target named is T1, human serum albumin (HSA) (Homo sapiens, UniProt P02768).
T1 construct: gene ALB; full HSA; recombinant domain III (DIII) also measured
T1 sequence (P02768 25-609): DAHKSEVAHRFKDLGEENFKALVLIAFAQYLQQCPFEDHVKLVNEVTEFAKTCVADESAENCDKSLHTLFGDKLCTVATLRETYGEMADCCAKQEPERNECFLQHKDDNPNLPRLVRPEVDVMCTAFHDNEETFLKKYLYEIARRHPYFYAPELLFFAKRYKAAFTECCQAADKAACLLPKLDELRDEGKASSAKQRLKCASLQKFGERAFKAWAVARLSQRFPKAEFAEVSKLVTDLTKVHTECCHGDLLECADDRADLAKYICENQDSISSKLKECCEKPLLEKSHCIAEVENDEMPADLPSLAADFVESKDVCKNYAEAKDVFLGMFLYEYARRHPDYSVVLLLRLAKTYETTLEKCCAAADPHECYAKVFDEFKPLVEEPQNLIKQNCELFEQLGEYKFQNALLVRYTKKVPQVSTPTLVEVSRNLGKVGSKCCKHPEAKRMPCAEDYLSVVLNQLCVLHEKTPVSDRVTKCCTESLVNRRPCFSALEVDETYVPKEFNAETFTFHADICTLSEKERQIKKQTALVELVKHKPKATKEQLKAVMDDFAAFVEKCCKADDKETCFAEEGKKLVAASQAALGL
The experiment in a line: BLI; also HRMS ([…] covalent binding) and SDS-PAGE. A general note: BLI is a label-free optical method that tracks binding on a fibre tip over time.

In assay [2] the target is T1, human serum albumin (HSA). The experiment in a line: BLI; also HRMS ([…] covalent binding) and SDS-PAGE. This is another data set of the same source.
In assay [3] the target is T1, human serum albumin (HSA). The experiment in a line: BLI; also HRMS, SDS-PAGE and proteomics of the covalent adduct. It counts as binding.

pKd: −log10 of the molar value.

`O=S(=O)(O)CCCCn1/c(=C/C=C2\CCCC(/C=C/C3=[N+](CCCCS(=O)(=O)O)c4cccc5cccc3c45)=C2Cl)c2cccc3cccc1c32` [FD-1080] had a pKd in assay [1] of roughly 7.08.

On to `CCn1/c(=C/C=C2\CCCC(/C=C/C3=[N+](CC)c4cccc5cccc3c45)=C2Cl)c2cccc3cccc1c32` [Et-1080], for which, in assay [2], the pKd was roughly 7.84. Consider `O=C(O)CCCCCn1/c(=C/C=C2\CCCC(/C=C/C3=[N+](CCCCCC(=O)O)c4cccc5cccc3c45)=C2Cl)c2cccc3cccc1c32` [CO-1080], for which the pKd in assay [3] is roughly 8.67.
